# Test results from PubChem BioAssay (NCI).
#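 A five-concentration, 48-hour dose response in 96-well plates underlies each endpoint, interpolated linearly between surrounding concentrations. Here, GI50 denotes the concentration required for 50% inhibition of growth. TGI denotes the concentration required for complete inhibition of growth.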
# Legend:
# Assay in all cases: NCI anticancer screen, dose series, 48 h
# TK-10 renal = tested on: TK-10 renal
# MOLT-4 leukemia = tested on: MOLT-4 leukemia
# SN12C renal = tested on: SN12C renal
# OVCAR-3 ovarian = tested on: OVCAR-3 ovarian
# MDA-MB-231 breast = tested on: MDA-MB-231 breast
# EKVX NSCLC = tested on: EKVX NSCLC
# OVCAR-5 ovarian = tested on: OVCAR-5 ovarian
# DLD-1 colon = tested on: DLD-1 colon
# DMS 273 small cell lung = tested on: DMS 273 small cell lung
# SK-MEL-2 melanoma = tested on: SK-MEL-2 melanoma
SMILES,TGI (TK-10 renal),TGI (MOLT-4 leukemia),TGI (SN12C renal),TGI (OVCAR-3 ovarian),TGI (MDA-MB-231 breast),TGI (EKVX NSCLC),TGI (OVCAR-5 ovarian),TGI (DLD-1 colon),TGI (DMS 273 small cell lung),TGI (SK-MEL-2 melanoma),GI50 (SK-MEL-2 melanoma),GI50 (TK-10 renal),GI50 (MOLT-4 leukemia),GI50 (SN12C renal),GI50 (OVCAR-3 ovarian),GI50 (EKVX NSCLC),GI50 (OVCAR-5 ovarian),GI50 (DLD-1 colon),GI50 (DMS 273 small cell lung)
CCOCC(=O)N[C@H]1CCc2cc(OC)c(OC)c(OC)c2-c2ccc(SC)c(=O)cc21,> 100 µM,> 62.6 µM,> 100 µM,< 0.0658 µM,2.31 µM,> 100 µM,> 100 µM,> 100 µM,> 100 µM,,,,,,,,,,
N=S(=O)(c1ccccc1)c1ccccc1[N+](=O)[O-] (centres undefined),> 100 µM,> 100 µM,> 100 µM,> 100 µM,,> 100 µM,> 100 µM,> 100 µM,> 100 µM,> 100 µM,,,,,,,,,
CC1CCc2c(sc3ncnc(N/N=C/c4ccc(Cl)c(Cl)c4)c23)C1 (centres undefined),> 100 µM,> 100 µM,> 100 µM,57.4 µM,,89.8 µM,> 100 µM,> 100 µM,39.6 µM,> 100 µM,,,,,,,,,
CCNc1c(C(=O)N(CC)CC)c(=O)[nH]c2ncccc12,> 100 µM,> 100 µM,> 100 µM,> 100 µM,,> 100 µM,> 100 µM,> 100 µM,> 100 µM,> 100 µM,,,,,,,,,
CS(=O)(=O)N(CCC#N)c1ccc(/C=N/NC(=O)CC(=O)Nc2cccc(Cl)c2)cc1,> 100 µM,> 100 µM,> 100 µM,> 100 µM,,> 100 µM,> 100 µM,> 100 µM,> 100 µM,> 100 µM,,,,,,,,,
N#CCCN(CCC#N)c1ccc(/C=C2\N=C(COc3ccc(Cl)cc3Cl)OC2=O)cc1,> 100 µM,> 100 µM,> 100 µM,> 100 µM,,> 100 µM,> 100 µM,> 100 µM,> 100 µM,> 100 µM,,,,,,,,,
Cc1cc2c(cc1C)[n+](=O)c(C(=O)/C=C/c1ccc(Cl)cc1)c(C)n2[O-],58.5 µM,73.5 µM,> 100 µM,> 100 µM,,> 100 µM,> 100 µM,70.9 µM,> 100 µM,79.1 µM,,,,,,,,,
CS(=O)(=O)OCCN1CCN(C(=O)c2cccc3c(Nc4ccc(S(N)(=O)=O)cc4)c4ccccc4nc23)CC1,> 100 µM,> 100 µM,> 100 µM,> 100 µM,,> 100 µM,> 100 µM,> 65.3 µM,> 100 µM,> 100 µM,,,,,,,,,
O=S(=O)([O-])[O-].[Cl-].[NH2-].[NH2-].[NH2-].[NH2-].[Ru+3].c1ccc(-c2cccnc2)cc1,> 100 µM,> 100 µM,> 100 µM,> 100 µM,,> 100 µM,> 100 µM,> 100 µM,> 100 µM,> 100 µM,> 100 µM,> 100 µM,> 100 µM,> 100 µM,> 100 µM,> 100 µM,> 100 µM,> 100 µM,> 100 µM
CCN(CC)c1ccc(N=C2C=CC(=O)c3ncccc32)c(C)c1,29.8 µM,6.14 µM,20.1 µM,11.4 µM,,30.4 µM,24.4 µM,12 µM,20.6 µM,29 µM,,,,,,,,,
